Values after ≈ are worked out from the molar mass of the structure shown.
Key:
Assay type in all cases: functional
Pseudomonas aeruginosa [1] = test: Antibacterial activity against Pseudomonas aeruginosa assessed as inhibition of bacterial growth incubated for 24 hrs by CLSI protocol based two fold serial dilution method
Klebsiella pneumoniae = test: Antibacterial activity against Klebsiella pneumonia assessed as inhibition of bacterial growth incubated for 24 hrs by CLSI protocol based two fold serial dilution method
Staphylococcus aureus [2] = test: Antibacterial activity against methicillin-resistant Staphylococcus aureus N315 assessed as inhibition of bacterial growth incubated for 24 hrs by CLSI protocol based two fold serial dilution method
Staphylococcus aureus [3] = test: Antibacterial activity against Staphylococcus aureus 29213 assessed as inhibition of bacterial growth incubated for 24 hrs by CLSI protocol based two fold serial dilution method
Acinetobacter baumannii = test: Antibacterial activity against Acinetobacter baumannii assessed as inhibition of bacterial growth incubated for 24 hrs by CLSI protocol based two fold serial dilution method
Escherichia coli [4] = test: Antibacterial activity against Escherichia coli assessed as inhibition of bacterial growth incubated for 24 hrs by CLSI protocol based two fold serial dilution method
Pseudomonas aeruginosa [5] = test: Antibacterial activity against Pseudomonas aeruginosa ATCC 27853 assessed as inhibition of bacterial growth incubated for 24 hrs by CLSI protocol based two fold serial dilution method
Enterococcus faecalis = test: Antibacterial activity against Enterococcus faecalis assessed as inhibition of bacterial growth incubated for 24 hrs by CLSI protocol based two fold serial dilution method
Escherichia coli [6] = test: Antibacterial activity against Escherichia coli 25922 assessed as inhibition of bacterial growth incubated for 24 hrs by CLSI protocol based two fold serial dilution method
Staphylococcus aureus [7] = test: Antibacterial activity against Staphylococcus aureus assessed as inhibition of bacterial growth incubated for 24 hrs by CLSI protocol based two fold serial dilution method
Staphylococcus aureus [8] = test: Antibacterial activity against Staphylococcus aureus 25923 assessed as inhibition of bacterial growth incubated for 24 hrs by CLSI protocol based two fold serial dilution method

| SMILES | MIC (Pseudomonas aeruginosa [1]) | MIC (Klebsiella pneumoniae) | MIC (Staphylococcus aureus [2]) | MIC (Staphylococcus aureus [3]) | MIC (Acinetobacter baumannii) | MIC (Escherichia coli [4]) | MIC (Pseudomonas aeruginosa [5]) | MIC (Enterococcus faecalis) | MIC (Escherichia coli [6]) | MIC (Staphylococcus aureus [7]) | MIC (Staphylococcus aureus [8]) |
| --- | --- | --- | --- | --- | --- | --- | --- | --- | --- | --- | --- |
| Fc1ccc(COc2cccc3c2c2ccccc2n3Cc2nnc(S)o2)c(F)c1 | 256 µg/mL (≈ 605 µM) | 32 µg/mL (≈ 75.6 µM) | 32 µg/mL (≈ 75.6 µM) | 64 µg/mL (≈ 151 µM) | 64 µg/mL (≈ 151 µM) | 128 µg/mL (≈ 302 µM) | 0.25 µg/mL (≈ 0.59 µM) | 64 µg/mL (≈ 151 µM) | 16 µg/mL (≈ 37.8 µM) | 128 µg/mL (≈ 302 µM) | 64 µg/mL (≈ 151 µM) |
| c1ccc2c(c1)[nH]c1cccc(OCc3nnn[nH]3)c12 | 128 µg/mL (≈ 483 µM) | 64 µg/mL (≈ 241 µM) | 0.5 µg/mL (≈ 1.88 µM) | 128 µg/mL (≈ 483 µM) | 128 µg/mL (≈ 483 µM) | 128 µg/mL (≈ 483 µM) | 0.5 µg/mL (≈ 1.88 µM) | 64 µg/mL (≈ 241 µM) | 128 µg/mL (≈ 483 µM) | 128 µg/mL (≈ 483 µM) | 128 µg/mL (≈ 483 µM) |
| CCn1c2ccccc2c2nnc(SCc3nnc(S)o3)nc21 | 256 µg/mL (≈ 743 µM) | 256 µg/mL (≈ 743 µM) | 256 µg/mL (≈ 743 µM) | 256 µg/mL (≈ 743 µM) | 256 µg/mL (≈ 743 µM) | 256 µg/mL (≈ 743 µM) | 256 µg/mL (≈ 743 µM) | 256 µg/mL (≈ 743 µM) | 256 µg/mL (≈ 743 µM) | 256 µg/mL (≈ 743 µM) | 256 µg/mL (≈ 743 µM) |
| Fc1ccc(COc2cccc3c2c2ccccc2n3Cc2nnc(S)o2)cc1 | 256 µg/mL (≈ 631 µM) | 4 µg/mL (≈ 9.87 µM) | 1 µg/mL (≈ 2.47 µM) | 8 µg/mL (≈ 19.7 µM) | 4 µg/mL (≈ 9.87 µM) | 0.25 µg/mL (≈ 0.617 µM) | 8 µg/mL (≈ 19.7 µM) | 2 µg/mL (≈ 4.93 µM) | 2 µg/mL (≈ 4.93 µM) | 256 µg/mL (≈ 631 µM) | 2 µg/mL (≈ 4.93 µM) |
| Sc1nnc(COc2cccc3[nH]c4ccccc4c23)o1 | 256 µg/mL (≈ 861 µM) | 4 µg/mL (≈ 13.5 µM) | 2 µg/mL (≈ 6.73 µM) | 128 µg/mL (≈ 430 µM) | 64 µg/mL (≈ 215 µM) | 1 µg/mL (≈ 3.36 µM) | 64 µg/mL (≈ 215 µM) | 2 µg/mL (≈ 6.73 µM) | 4 µg/mL (≈ 13.5 µM) | 64 µg/mL (≈ 215 µM) | 64 µg/mL (≈ 215 µM) |
| CCCCOc1cccc2c1c1ccccc1n2Cc1nnc(S)o1 | 256 µg/mL (≈ 724 µM) | 256 µg/mL (≈ 724 µM) | 256 µg/mL (≈ 724 µM) | 256 µg/mL (≈ 724 µM) | 0.25 µg/mL (≈ 0.707 µM) | 256 µg/mL (≈ 724 µM) | 256 µg/mL (≈ 724 µM) | 4 µg/mL (≈ 11.3 µM) | 256 µg/mL (≈ 724 µM) | 256 µg/mL (≈ 724 µM) | 256 µg/mL (≈ 724 µM) |
| CCCCCOc1cccc2c1c1ccccc1n2Cc1nnc(S)o1 | 256 µg/mL (≈ 697 µM) | 256 µg/mL (≈ 697 µM) | 256 µg/mL (≈ 697 µM) | 256 µg/mL (≈ 697 µM) | 128 µg/mL (≈ 348 µM) | 256 µg/mL (≈ 697 µM) | 256 µg/mL (≈ 697 µM) | 256 µg/mL (≈ 697 µM) | 256 µg/mL (≈ 697 µM) | 256 µg/mL (≈ 697 µM) | 256 µg/mL (≈ 697 µM) |
| CN[C@H](CC(C)C)C(=O)N[C@H]1C(=O)N[C@@H](CC(N)=O)C(=O)N[C@H]2C(=O)N[C@H]3C(=O)N[C@H](C(=O)N[C@H](C(=O)O)c4cc(O)cc(O)c4-c4cc3ccc4O)[C@H](O)c3ccc(c(Cl)c3)Oc3cc2cc(c3O[C@@H]2O[C@H](CO)[C@@H](O)[C@H](O)[C@H]2O[C@H]2C[C@](C)(N)[C@H](O)[C@H](C)O2)Oc2ccc(cc2Cl)[C@H]1O [VANCOMYCIN] |  |  |  |  |  |  |  | 2 µg/mL (≈ 1.38 µM) |  |  |  |
| CCn1cc(C(=O)O)c(=O)c2cc(F)c(N3CCNCC3)cc21 [NORFLOXACIN] | 8 µg/mL (≈ 25.1 µM) | 4 µg/mL (≈ 12.5 µM) | 0.5 µg/mL (≈ 1.57 µM) | 4 µg/mL (≈ 12.5 µM) | 128 µg/mL (≈ 401 µM) | 0.25 µg/mL (≈ 0.783 µM) | 128 µg/mL (≈ 401 µM) | 2 µg/mL (≈ 6.26 µM) | 2 µg/mL (≈ 6.26 µM) | 2 µg/mL (≈ 6.26 µM) | 1 µg/mL (≈ 3.13 µM) |
| Sc1nnc(COc2cccc3c2c2ccccc2n3Cc2nnc(S)o2)o1 | 128 µg/mL (≈ 311 µM) | 64 µg/mL (≈ 156 µM) | 32 µg/mL (≈ 77.8 µM) | 64 µg/mL (≈ 156 µM) | 128 µg/mL (≈ 311 µM) | 32 µg/mL (≈ 77.8 µM) | 128 µg/mL (≈ 311 µM) | 32 µg/mL (≈ 77.8 µM) | 32 µg/mL (≈ 77.8 µM) | 32 µg/mL (≈ 77.8 µM) | 64 µg/mL (≈ 156 µM) |
| CCCCCCOc1cccc2c1c1ccccc1n2Cc1nnc(S)o1 | 256 µg/mL (≈ 671 µM) | 256 µg/mL (≈ 671 µM) | 256 µg/mL (≈ 671 µM) | 1 µg/mL (≈ 2.62 µM) | 256 µg/mL (≈ 671 µM) | 8 µg/mL (≈ 21 µM) | 256 µg/mL (≈ 671 µM) | 256 µg/mL (≈ 671 µM) | 4 µg/mL (≈ 10.5 µM) | 256 µg/mL (≈ 671 µM) | 256 µg/mL (≈ 671 µM) |
| CC(C)=CCn1c2ccccc2c2c(OCc3nnn[nH]3)cccc21 | 256 µg/mL (≈ 768 µM) | 32 µg/mL (≈ 96 µM) | 16 µg/mL (≈ 48 µM) | 32 µg/mL (≈ 96 µM) | 32 µg/mL (≈ 96 µM) | 32 µg/mL (≈ 96 µM) | 0.5 µg/mL (≈ 1.5 µM) | 256 µg/mL (≈ 768 µM) | 128 µg/mL (≈ 384 µM) | 256 µg/mL (≈ 768 µM) | 64 µg/mL (≈ 192 µM) |
| Clc1cnc(COc2cccc3[nH]c4ccccc4c23)s1 | 256 µg/mL (≈ 813 µM) | 256 µg/mL (≈ 813 µM) | 256 µg/mL (≈ 813 µM) | 256 µg/mL (≈ 813 µM) | 256 µg/mL (≈ 813 µM) | 256 µg/mL (≈ 813 µM) | 256 µg/mL (≈ 813 µM) | 256 µg/mL (≈ 813 µM) | 256 µg/mL (≈ 813 µM) | 256 µg/mL (≈ 813 µM) | 256 µg/mL (≈ 813 µM) |
| CCN(CC)CCOc1cccc2c1c1ccccc1n2Cc1nnc(S)o1 | 256 µg/mL (≈ 646 µM) | 256 µg/mL (≈ 646 µM) | 128 µg/mL (≈ 323 µM) | 256 µg/mL (≈ 646 µM) | 256 µg/mL (≈ 646 µM) | 256 µg/mL (≈ 646 µM) | 2 µg/mL (≈ 5.04 µM) | 4 µg/mL (≈ 10.1 µM) | 256 µg/mL (≈ 646 µM) | 256 µg/mL (≈ 646 µM) | 256 µg/mL (≈ 646 µM) |
| Fc1cccc(COc2cccc3c2c2ccccc2n3Cc2nnc(S)o2)c1 | 256 µg/mL (≈ 631 µM) | 32 µg/mL (≈ 78.9 µM) | 64 µg/mL (≈ 158 µM) | 128 µg/mL (≈ 316 µM) | 64 µg/mL (≈ 158 µM) | 128 µg/mL (≈ 316 µM) | 0.5 µg/mL (≈ 1.23 µM) | 32 µg/mL (≈ 78.9 µM) | 16 µg/mL (≈ 39.5 µM) | 128 µg/mL (≈ 316 µM) | 32 µg/mL (≈ 78.9 µM) |
